Experimental data reported in US20080207641A1 (Synta Pharmaceuticals Corp., priority 2006, published 2008).
Values after ≈ are worked out from the molar mass of the structure shown.

Tests used:
[1] = Solubility of salts (water solubility); assay type: physicochemical; conditions: for Water Solubility: salts of the parent compound
[2] = Pharmacokinetic profile / oral bioavailability in male SD rats; assay type: in vivo; conditions: rat; for AUC(0-inf) / AUC(0-t) / Cmax / Tmax / half-life: plasma
Description: The pharmacokinetic profile of 3-fluoro-N-(4-(4-methyl-1-(thiazol-2-yl)-1,2,5,6-tetrahydro pyridin-3-yl)phenyl)isonicotinamide dihydrochloride was studied in male SD rats. Rats were bled at 5 min (IV only), 15 min, 30 min, 1 h, 2 h, 4 h, 6 h, 8 h and 24 h. Samples were prepared by mixing 50 μL of plasma, 5 μL, DMSO, and 250 μL of ACN, followed by shaking for 5 min, centrifuging at 4400 rpm for 15 min at 8° C. 225 μL of supernatant was vacuum dried, reconstituted with 180 μL of 20% ACN (10 mM NH4OAc), shaken for ˜2 min and transferred to 96MT plate. Samples were analyzed by HPLC, Phenomenex Onyx Monolithic C18, 4.6×100 mm column eluted with 30-95% ACN (10 mM NH4OAc) gradient. Detection was at 280 nm.

[3] = Solubility in simulated gastric fluids; assay type: physicochemical
From the text: Solubility in Simulated Gastric Fluids

IL-2 production = experiment: Inhibition of IL-2 production in PHA-activated Jurkat cells (ELISA); assay type: cell-based; conditions: Homo sapiens, 20 h, PHA 2.5 μg/mL, 20 hours at 37° C., IL-2 ELISA
Description: Jurkat cells were placed in a 96 well plate (0.5 million cells per well in 1% FBS medium) then a test compound of this invention was added at different concentrations. After 10 minutes, the cells were activated with PHA (final concentration 2.5 μg/mL) and incubated for 20 hours at 37° C. under CO2. The final volume was 200 μL. Following incubation, the cells were centrifuged and the supernatants collected and stored at −70° C. prior to assaying for IL-2 production. A commercial ELISA kit (IL-2 Eli-pair, Diaclone Research, Besancon, France) was used to detect production of IL-2, from which dose response curves were obtained. The IC50 value was calculated as the concentration at which 50% of maximum IL-2 production after stimulation was inhibited versus a non-stimulation control.

Row | Compound | Water Solubility [1] | IC50 (IL-2 production) | solubility ([3]; simulated gastric fluid) | other results
1 | CC1=C(c2ccc(NC(=O)c3ccncc3F)cc2)CN(c2nccs2)CC1 [Compound H2SO4, 3-fluoro-N-(4-(4-methyl-1-(thiazol-2-yl)-1,2,5,6-tetrahydropyridin-3-yl)phenyl)isonicotinamide] | 12.69 mg/mL | – | – | –
2 | CC1=C(c2ccc(NC(=O)c3ccncc3F)cc2)CN(c2nccs2)CC1 [HBr, 3-fluoro-N-(4-(4-methyl-1-(thiazol-2-yl)-1,2,5,6-tetrahydropyridin-3-yl)phenyl)isonicotinamide] | 11.56 mg/mL | – | – | –
3 | CC1=C(c2ccc(NC(=O)c3ccncc3F)cc2)CN(c2nccs2)CC1 [Citrate, 3-fluoro-N-(4-(4-methyl-1-(thiazol-2-yl)-1,2,5,6-tetrahydropyridin-3-yl)phenyl)isonicotinamide] | 1.19 mg/mL | – | – | –
4 | CC1=C(c2ccc(NC(=O)c3ccncc3F)cc2)CN(c2nccs2)CC1 [Succinate, 3-fluoro-N-(4-(4-methyl-1-(thiazol-2-yl)-1,2,5,6-tetrahydropyridin-3-yl)phenyl)isonicotinamide] | 0.36 mg/mL | – | – | –
5 | CC1=C(c2ccc(NC(=O)c3ccncc3F)cc2)CN(c2nccs2)CC1.Cl.Cl [3-fluoro-N-(4-(4-methyl-1-(thiazol-2-yl)-1,2,5,6-tetrahydropyridin-3-yl)phenyl)isonicotinamide dihydrochloride] | – | – | – | solubility ([1]; dihydrochloride salt): > 12 mg/mL; bioavailability ([2]; in vivo, PO, 50 mg/kg, 0.5% MC, read-out: % F (oral bioavailability)): 93.4%; AUC(0-inf) ([2]; IV, 5 mg/kg, DRD formulation): 37.6 µM·h; AUC(0-t) ([2]; IV, 5 mg/kg, DRD formulation): 37.5 µM·h; Cmax ([2]; IV, 5 mg/kg, DRD formulation): 34.6 µM; Tmax ([2]; IV, 5 mg/kg, DRD formulation): 0.083 h; half-life ([2]; IV, 5 mg/kg, DRD formulation): 1 h; AUC(0-inf) ([2]; PO, 50 mg/kg, 0.5% MC): 351 µM·h; AUC(0-t) ([2]; PO, 50 mg/kg, 0.5% MC): 348 µM·h; Cmax ([2]; PO, 50 mg/kg, 0.5% MC): 43.5 µM; Tmax ([2]; PO, 50 mg/kg, 0.5% MC): 2 h; half-life ([2]; PO, 50 mg/kg, 0.5% MC): 3.2 h
6 | CC1=C(c2ccc(NC(=O)c3ccc(F)cc3F)cc2)CN(c2nccs2)CC1 [Compound 16, 2,4-difluoro-N-(4-(4-methyl-1-(thiazol-2-yl)-1,2,5,6-tetrahydropyridin-3-yl)phenyl)benzamide] | – | ≤ 0.035 µM | – | solubility [3]: 150 µM (≈ 61.7 µg/mL)
7 | CC1=C(c2ccc(NC(=O)c3ccccc3F)nc2)CN(c2nnn(C)n2)CC1 [Compound 29, 2-fluoro-N-(5-(4-methyl-1-(2-methyl-2H-tetrazol-5-yl)-1,2,5,6-tetrahydropyridin-3-yl)pyridin-2-yl)benzamide] | – | 0.035 to 0.075 µM | 50 µM (≈ 19.7 µg/mL) | –
8 | CC1=C(c2ccc(NC(=O)c3c(F)cccc3F)nc2)CN(c2nnn(C)n2)CC1 [Compound 6, 2,6-difluoro-N-(5-(4-methyl-1-(2-methyl-2H-tetrazol-5-yl)-1,2,5,6-tetrahydropyridin-3-yl)pyridin-2-yl)benzamide] | – | ≤ 0.035 µM | 50 µM (≈ 20.6 µg/mL) | –
9 | CC1=C(c2ccc(NC(=O)c3c(F)cccc3F)cn2)CN(c2nccs2)CC1 [Compound 11, 2,6-difluoro-N-(6-(4-methyl-1-(thiazol-2-yl)-1,2,5,6-tetrahydropyridin-3-yl)pyridin-3-yl)benzamide] | – | 0.075 to 0.15 µM | 100 µM (≈ 41.2 µg/mL) | –
10 | CC1=C(c2cnc(NC(=O)c3ccccc3F)cn2)CN(c2nnn(C)n2)CC1 [Compound 33, 2-fluoro-N-(5-(4-methyl-1-(2-methyl-2H-tetrazol-5-yl)-1,2,5,6-tetrahydropyridin-3-yl)pyrazin-2-yl)benzamide] | – | 0.075 to 0.15 µM | – | solubility [3]: 150 µM (≈ 59.2 µg/mL)
11 | CC1=C(c2ccc(NC(=O)c3ccccc3F)cc2)CN(c2nccs2)CC1 [Compound 12, 2-fluoro-N-(4-(4-methyl-1-(thiazol-2-yl)-1,2,5,6-tetrahydropyridin-3-yl)phenyl)benzamide] | – | ≤ 0.035 µM | 50 µM (≈ 19.7 µg/mL) | –
12 | CC1=C(c2cnc(NC(=O)c3c(F)cccc3F)cn2)CN(c2ncco2)CC1 [Compound 30, 2,6-difluoro-N-(5-(4-methyl-1-(oxazol-2-yl)-1,2,5,6-tetrahydropyridin-3-yl)pyrazin-2-yl)benzamide] | – | 0.035 to 0.075 µM | – | solubility [3]: 150 µM (≈ 59.6 µg/mL)
13 | CC1=C(c2ccc(NC(=O)c3c(F)cncc3F)cc2)CN(c2nccs2)CC1 [Compound 32, 3,5-difluoro-N-(4-(4-methyl-1-(thiazol-2-yl)-1,2,5,6-tetrahydropyridin-3-yl)phenyl)isonicotinamide] | – | ≤ 0.035 µM | – | solubility [3]: 150 µM (≈ 61.9 µg/mL)
14 | CC1=C(c2ccc(NC(=O)c3c(O)cccc3F)cc2)CN(c2nccs2)CC1 [Compound 13, 2-fluoro-6-hydroxy-N-(4-(4-methyl-1-(thiazol-2-yl)-1,2,5,6-tetrahydropyridin-3-yl)phenyl)benzamide] | – | 0.15 to 1 µM | 50 µM (≈ 20.5 µg/mL) | –
15 | CC1=C(c2cnc(NC(=O)c3ccncc3F)cn2)CN(c2nccs2)CC1 [Compound 4, 3-fluoro-N-(5-(4-methyl-1-(thiazol-2-yl)-1,2,5,6-tetrahydropyridin-3-yl)pyrazin-2-yl)isonicotinamide] | – | ≤ 0.035 µM | 50 µM (≈ 19.8 µg/mL) | –
16 | CC1=C(c2ccc(NC(=O)c3ccncc3F)cc2)CN(c2nccs2)CC1 [Tartrate, 3-fluoro-N-(4-(4-methyl-1-(thiazol-2-yl)-1,2,5,6-tetrahydropyridin-3-yl)phenyl)isonicotinamide] | 1.34 mg/mL | – | – | –
